{"source": "PubChem BioAssay (NCI)", "assay_in_all_cases": "inhibition of tumour cell growth, NCI panel, 48 h", "key": {"[1]": {"test_system": "MALME-3M melanoma"}, "[2]": {"test_system": "NCI-H522 lung"}, "[3]": {"test_system": "OVCAR-8 ovarian"}, "[4]": {"test_system": "SK-MEL-2 melanoma"}, "[5]": {"test_system": "786-0 renal"}, "[6]": {"test_system": "RXF 393 renal"}, "[7]": {"test_system": "M14 melanoma"}, "[8]": {"test_system": "EKVX NSCLC"}, "[9]": {"test_system": "COLO 205 colon"}, "[10]": {"test_system": "OVCAR-5 ovarian"}, "[11]": {"test_system": "NCI/ADR-RES ovarian"}, "[12]": {"test_system": "SK-MEL-28 melanoma"}, "[13]": {"test_system": "MOLT-4 leukemia"}, "[14]": {"test_system": "PC-3 prostate"}, "[15]": {"test_system": "MCF7 breast"}, "[16]": {"test_system": "DU-145 prostate"}, "[17]": {"test_system": "SW-620 colon"}, "[18]": {"test_system": "CCRF-CEM leukemia"}, "[19]": {"test_system": "SK-MEL-5 melanoma"}, "[20]": {"test_system": "HOP-62 NSCLC"}, "[21]": {"test_system": "SF-539 CNS"}, "[22]": {"test_system": "MDA-N"}, "[23]": {"test_system": "HCT-116 colon"}, "[24]": {"test_system": "A498 renal"}, "[25]": {"test_system": "NCI-H460 lung"}, "[26]": {"test_system": "SK-OV-3 ovarian"}, "[27]": {"test_system": "T-47D breast"}, "[28]": {"test_system": "MDA-MB-435"}, "[29]": {"test_system": "SF-268 CNS"}, "[30]": {"test_system": "OVCAR-3 ovarian"}, "[31]": {"test_system": "HS 578T breast"}, "[32]": {"test_system": "HCC-2998 colon"}, "[33]": {"test_system": "HOP-92 NSCLC"}, "[34]": {"test_system": "RPMI-8226 leukemia"}, "[35]": {"test_system": "SNB-19 CNS"}, "[36]": {"test_system": "UACC-62 melanoma"}, "[37]": {"test_system": "A549 NSCLC"}, "[38]": {"test_system": "SNB-75 CNS"}, "[39]": {"test_system": "SR leukemia"}, "[40]": {"test_system": "KM12 colon"}, "[41]": {"test_system": "LOX IMVI melanoma"}, "[42]": {"test_system": "SF-295 CNS"}, "[43]": {"test_system": "U251 CNS"}, "[44]": {"test_system": "NCI-H226 lung"}, "[45]": {"test_system": "HL-60(TB) leukemia"}, "[46]": {"test_system": "ACHN renal"}, "[47]": {"test_system": "SN12C renal"}, "[48]": {"test_system": "UACC-257 melanoma"}, "[49]": {"test_system": "HCT-15 colon"}, "[50]": {"test_system": "IGROV1 ovarian"}, "[51]": {"test_system": "BT-549 breast"}, "[52]": {"test_system": "CAKI-1 renal"}, "[53]": {"test_system": "MDA-MB-231 breast"}, "[54]": {"test_system": "K-562 leukemia"}, "[55]": {"test_system": "HT29 colon"}, "[56]": {"test_system": "NCI-H23 lung"}, "[57]": {"test_system": "TK-10 renal"}, "[58]": {"test_system": "OVCAR-4 ovarian"}}, "note": "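Results reflect a 48-hour exposure of cells in 96-well plates to compound at five concentrations. TGI denotes the concentration required for complete inhibition of growth.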"}
{"smiles": "O=C1CC(C(O)(C(F)(F)F)C(F)(F)Cl)CCC1C(O)(C(F)(F)F)C(F)(F)Cl", "note": "(stereo not drawn)", "values": [{"measurement": "TGI", "setting": "[1]", "value": "> 10", "unit": "µM"}, {"measurement": "TGI", "setting": "[2]", "value": "> 10", "unit": "µM"}, {"measurement": "TGI", "setting": "[3]", "value": "> 10", "unit": "µM"}, {"measurement": "TGI", "setting": "[4]", "value": "> 10", "unit": "µM"}, {"measurement": "TGI", "setting": "[5]", "value": "> 10", "unit": "µM"}, {"measurement": "TGI", "setting": "[6]", "value": "> 10", "unit": "µM"}, {"measurement": "TGI", "setting": "[7]", "value": "> 10", "unit": "µM"}, {"measurement": "TGI", "setting": "[8]", "value": "> 10", "unit": "µM"}, {"measurement": "TGI", "setting": "[9]", "value": "> 10", "unit": "µM"}, {"measurement": "TGI", "setting": "[10]", "value": "> 10", "unit": "µM"}, {"measurement": "TGI", "setting": "[11]", "value": "> 10", "unit": "µM"}, {"measurement": "TGI", "setting": "[12]", "value": "> 10", "unit": "µM"}, {"measurement": "TGI", "setting": "[13]", "value": "> 10", "unit": "µM"}, {"measurement": "TGI", "setting": "[14]", "value": "> 10", "unit": "µM"}, {"measurement": "TGI", "setting": "[15]", "value": "> 10", "unit": "µM"}, {"measurement": "TGI", "setting": "[16]", "value": "> 10", "unit": "µM"}, {"measurement": "TGI", "setting": "[17]", "value": "> 10", "unit": "µM"}, {"measurement": "TGI", "setting": "[18]", "value": "> 10", "unit": "µM"}, {"measurement": "TGI", "setting": "[19]", "value": "> 10", "unit": "µM"}, {"measurement": "TGI", "setting": "[20]", "value": "> 10", "unit": "µM"}, {"measurement": "TGI", "setting": "[21]", "value": "> 10", "unit": "µM"}, {"measurement": "TGI", "setting": "[22]", "value": "> 10", "unit": "µM"}, {"measurement": "TGI", "setting": "[23]", "value": "> 10", "unit": "µM"}, {"measurement": "TGI", "setting": "[24]", "value": "> 10", "unit": "µM"}, {"measurement": "TGI", "setting": "[25]", "value": "> 10", "unit": "µM"}, {"measurement": "TGI", "setting": "[26]", "value": "> 10", "unit": "µM"}, {"measurement": "TGI", "setting": "[27]", "value": "> 10", "unit": "µM"}, {"measurement": "TGI", "setting": "[28]", "value": "> 10", "unit": "µM"}, {"measurement": "TGI", "setting": "[29]", "value": "> 10", "unit": "µM"}, {"measurement": "TGI", "setting": "[30]", "value": "> 10", "unit": "µM"}, {"measurement": "TGI", "setting": "[31]", "value": "> 10", "unit": "µM"}, {"measurement": "TGI", "setting": "[32]", "value": "> 10", "unit": "µM"}, {"measurement": "TGI", "setting": "[33]", "value": 5.09, "unit": "µM"}, {"measurement": "TGI", "setting": "[34]", "value": "> 10", "unit": "µM"}, {"measurement": "TGI", "setting": "[35]", "value": "> 10", "unit": "µM"}, {"measurement": "TGI", "setting": "[36]", "value": "> 10", "unit": "µM"}, {"measurement": "TGI", "setting": "[37]", "value": "> 10", "unit": "µM"}, {"measurement": "TGI", "setting": "[38]", "value": "> 10", "unit": "µM"}, {"measurement": "TGI", "setting": "[39]", "value": "> 10", "unit": "µM"}, {"measurement": "TGI", "setting": "[40]", "value": "> 10", "unit": "µM"}, {"measurement": "TGI", "setting": "[41]", "value": "> 10", "unit": "µM"}, {"measurement": "TGI", "setting": "[42]", "value": "> 10", "unit": "µM"}, {"measurement": "TGI", "setting": "[43]", "value": "> 10", "unit": "µM"}, {"measurement": "TGI", "setting": "[44]", "value": "> 10", "unit": "µM"}, {"measurement": "TGI", "setting": "[45]", "value": "> 10", "unit": "µM"}, {"measurement": "TGI", "setting": "[46]", "value": "> 10", "unit": "µM"}, {"measurement": "TGI", "setting": "[47]", "value": "> 10", "unit": "µM"}, {"measurement": "TGI", "setting": "[48]", "value": "> 10", "unit": "µM"}, {"measurement": "TGI", "setting": "[49]", "value": "> 10", "unit": "µM"}, {"measurement": "TGI", "setting": "[50]", "value": "> 10", "unit": "µM"}, {"measurement": "TGI", "setting": "[51]", "value": "> 10", "unit": "µM"}, {"measurement": "TGI", "setting": "[52]", "value": "> 10", "unit": "µM"}, {"measurement": "TGI", "setting": "[53]", "value": "> 10", "unit": "µM"}, {"measurement": "TGI", "setting": "[54]", "value": "> 10", "unit": "µM"}, {"measurement": "TGI", "setting": "[55]", "value": "> 10", "unit": "µM"}, {"measurement": "TGI", "setting": "[56]", "value": "> 10", "unit": "µM"}, {"measurement": "TGI", "setting": "[57]", "value": "> 10", "unit": "µM"}, {"measurement": "TGI", "setting": "[58]", "value": "> 10", "unit": "µM"}]}
